Consider five compounds from patent publication US20140023611A1 (priority 2010, published 2014).

In data set [1] the target is T1, rat NaP2b (SLC34A2) (Rattus norvegicus, UniProt Q9JJ09).
T1 construct: host or cells: HEK293
T1 sequence (Q9JJ09 1-695): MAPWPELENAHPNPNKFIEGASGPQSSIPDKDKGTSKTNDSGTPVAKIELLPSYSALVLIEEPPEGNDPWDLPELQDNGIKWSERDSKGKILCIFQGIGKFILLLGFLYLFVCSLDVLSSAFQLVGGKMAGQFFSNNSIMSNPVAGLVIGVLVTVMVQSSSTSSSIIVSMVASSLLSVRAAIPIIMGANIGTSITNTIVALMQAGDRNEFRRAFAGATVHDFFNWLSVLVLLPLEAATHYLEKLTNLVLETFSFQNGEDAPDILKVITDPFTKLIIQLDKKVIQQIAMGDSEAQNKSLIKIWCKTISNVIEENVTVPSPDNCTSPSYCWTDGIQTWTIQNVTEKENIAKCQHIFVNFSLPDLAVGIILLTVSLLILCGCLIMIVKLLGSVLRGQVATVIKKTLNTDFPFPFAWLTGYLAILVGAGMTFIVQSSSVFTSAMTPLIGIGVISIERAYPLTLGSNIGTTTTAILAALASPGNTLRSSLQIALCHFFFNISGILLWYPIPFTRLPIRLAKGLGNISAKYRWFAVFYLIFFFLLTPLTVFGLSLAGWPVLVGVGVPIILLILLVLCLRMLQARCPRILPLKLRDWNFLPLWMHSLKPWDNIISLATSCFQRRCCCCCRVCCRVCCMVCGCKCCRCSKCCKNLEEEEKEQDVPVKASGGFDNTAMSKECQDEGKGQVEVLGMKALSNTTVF
Put plainly: NaP2b-mediated Pi transport (33P uptake) in transfected HEK293 cells, rat NaP2b. It is filed as cell-based. As to conditions: for pIC50 range for rat Nap2b: HEK293, 0.1 mM phosphate. In short, it runs like this: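 HEK293 cells transiently transfected with NaP2b cDNA, endogenous PiT transport suppressed; ^33P-phosphate uptake measured in sodium vs choline buffer (100 uM KH2PO4, pH 7.4) for 3–30 min at room temperature. Twelve concentrations, 0.1 nM–30 uM, in duplicate; uptake by scintillation counting, pIC50 calculated.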

The nature of data set [2]: Stability of compounds in simulated gastric and intestinal fluid. The format is in vitro ADME. Conditions: Structure (V) examples, Table 3, 3 hr. The method, then: Test compounds were incubated at 1-20 μM in simulated gastric fluid (SGF; standard USP solution with 3 mg/mL pepsin) or simulated intestinal fluid (SIF; standard USP solution with 3 mg/mL pancreatin) for 3 hr or 6 hr. HPLC-UV or HPLC-MS were used to determine test compound levels using peak area %. Results (Table 5) were reported as the percentage of test compound remaining after incubation in a given condition relative to test compound present at t=0 in the same condition.
Test compounds were incubated at 1-20 μM in simulated gastric fluid (SGF; standard USP solution with 3 mg/mL pepsin) or simulated intestinal fluid (SIF; standard USP solution with 3 mg/mL pancreatin) for 3 hr. HPLC-UV or HPLC-MS were used to determine test compound levels using peak area %. Results (Table 3) were reported as the percentage of test compound remaining after incubation in a given condition relative to test compound present at t=0 in the same condition.

Data set [3] has as its target T1, rat NaP2b (SLC34A2). Put plainly: Inhibition of NaP2b-mediated Pi (33P) uptake in transfected HEK293 cells, rat NaP2b. It is filed as cell-based. As to conditions: 33P Pi uptake, 0.1 mM phosphate, value given as pIC50 range. In short, it runs like this:
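HEK293 cells were transiently transfected with NaP2b cDNA using Lipofectamine and grown near confluence. Compounds were tested at twelve concentrations from 0.1 nM to 30 uM in duplicate, and 33P-phosphate uptake was counted by scintillation after lysis. Results are expressed as pIC50.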

For data set [4], the system named is Uptake of Phosphorus from the Intestine. The data set is described as follows: In vivo bolus phosphorus challenge. Further details: species or system rat. As to conditions: Sprague-Dawley rats on low-phosphorus diet; oral Drug Dose 30, 15 min before phosphate bolus; serum 30 min post bolus. As for the experimental part:
By pretreating animals with a low phosphorus diet followed by the subsequent dosing of a phosphorus bolus, serum phosphorus levels were monitored after 30 minutes as a surrogate for intestinal phosphorus absorption. […] The in vivo bolus phosphorus challenge model used here mimics this model in rats.
Male, 7-week-old Sprague-Dawley rats (Charles-River laboratories international, Hollister, Calif.) were allowed to acclimatize for a minimum of 3 days before switching to a synthetic low-phosphorus diet (TD.85010, Harlan Teklad, Madison, Wis.) which contains 0.1% phosphorus and 0.6% calcium. At day 5, testing compounds or vehicle alone (as indicated) were orally administered at the indicated dose in a volume of 5 ml/kg, followed by a bolus gavage of monobasic sodium phosphate (1 mmol in 1 ml) 15 min after compound dosing. Serum was collected via retroorbital bleeding 30 min post phosphate bolus and phosphate levels were determined utilizing an ACE ALERA blood chemistry analyzer (Alfa Wassermann Diagnostic Technologies, West Caldwell, N.J.).
The extent of inhibition by test compounds on the elevation of serum phosphate levels in response to the bolus of phosphorus is shown in Table 12 (data are expressed as % Inhibition, with 6-10 animals per data point). The differences between groups were evaluated by one-way analysis of variance with Dunnett's post hoc tests.

Data set [5] relates to NaPi2b. The data set is described as follows: Competition with phosphate: Pi uptake assay repeated at 2.1 vs 0.1 mM phosphate. As to conditions: potency at 2.1 vs 0.1 mM phosphate. It is filed as cell-based. The source says: For example, a phosphate uptake assay can be performed and the IC50 values for a compound at different phosphate concentrations can be determined (e.g., “Enzyme kinetics”, I. Segel, 1975, John-Wiley & Sons, p. 123). IC50 values for non-competitive inhibitors will remain the same or similar with respect to the phosphate concentration, whereas IC50 values for competitive inhibitors will increase (i.e lose potency) as phosphate concentration increases.
(§1) To ascertain if an inhibitor was competitive for binding with phosphate, the procedure was repeated, but raising the concentration of the substrate in the assay mixture from 0.1 to 2.1 mM phosphate.

In data set [6] the test system is Uptake of Phosphorus from the Intestine. The data set is described as follows: In vivo co-dosing in chow (urine P out / P consumed). As to conditions: Rattus norvegicus, feed or water; rats, compound in chow; mean drug dose 101 mg/kg/day; read-out: Mean % inhibition Urine Pout/P consumed. The source says: Male, 7-week-old Sprague-Dawley rats (Charles-River laboratories international, Hollister, Calif.) were allowed to acclimate for a minimum of 3 days. The experiment was initiated by switching animals to a synthetic diet (0.6% phosphorus and 0.6% calcium, Harlan Teklad TD.84122) for four days. After this time, the animals were placed into metabolic cages for daily monitoring of food and water consumption, as well as urine and fecal collections. Test compounds were incorporated into the powdered diet listed above containing 3% chocolate flavoring (w/w, BioServ #7345) at 1.3 mg test compound per gram of diet to achieve an average daily nominal dose of 100 mg/kg/day. The actual dose received by each animal was later determined by measuring prepared diet consumption and body weight. Urine samples were collected in three daily periods from 24-48, 48-72, and 72-96 hours of drug dosing. Averaging these three 24 h periods allows for the more representative measurements of urination, fecal excretion, food consumption and water uptake for each animal. Phosphorus levels in the urine were determined by anion exchange chromatography using a Dionex ICS-3000 ion chromatography system. Urine samples were diluted 1:500 or 1:1000 and injected onto an IonPac AS18 analytical column (2×250 mm) using a potassium hydroxide eluent. Elution of urine phosphate ions was monitored via conductivity detector and reported as ppm relative to a standard ion solution containing phosphate. Daily urinary P output relative to the P consumed in the prepared diet for each animal was calculated. The percentage inhibition of phosphorus absorption was estimated by determining the reduction of this ratio compared to the control group (animals with no drug in chow). The differences between the means of control and treated groups were evaluated by t tests. In all experiments, one group was always included that had Renvela powder blended into their chow at 0.9% targeting a dose of 750 mg/kg.

Data set [7] in a line: Stability of compounds in simulated gastric fluid (SGF). It is filed as in vitro ADME. Conditions: simulated gastric fluid (3 mg/mL pepsin), incubation time 6 hr, relative to t=0. In short, it runs like this:
(§2)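 Compounds at […] were incubated 3 or 6 hr in USP simulated gastric fluid with 3 mg/mL pepsin or simulated intestinal fluid with 3 mg/mL pancreatin. Remaining compound was quantified by HPLC-UV or HPLC-MS peak area % and reported as percent of the t=0 level in the same medium.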

Data set [8] can be described thus: Stability of compounds in simulated intestinal fluid (SIF). Conditions: simulated intestinal fluid (3 mg/mL pancreatin), incubation time 6 hr, relative to t=0. It is filed as in vitro ADME. A digest of the protocol: as §2
Data set [9] is described as follows: Determination of compound Cmax and AUC after oral gavage (plasma LC-MS/MS). The format is in vivo, Sprague-Dawley rats. As to conditions: Sprague-Dawley, Structure (I) examples, Table 15, rat, actual oral dose 3-15 mg/kg, plasma 0.5-4 h. A digest of the protocol: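 Sprague-Dawley rats dosed by oral gavage at nominal 2.5 or 10 mg/kg; blood drawn at 0.5, 1, 2 and 4 h into K2EDTA. Plasma protein-precipitated with acetonitrile plus internal standard and analysed by LC-MS/MS against a plasma standard curve to derive Cmax and AUC.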

Data set [10] in a line: Fecal recovery of orally administered compounds. It is filed as in vivo, Sprague-Dawley rats. As to conditions: Structure (I) examples, Table 16; rat, oral gavage, feces collected until 48 hr after dosing.
Text: The animals were kept in metabolic cages and feces were collected from the time of dosing until 48 hr after dosing. Upon collection, feces were dried by lyophilization and ground to a visually homogenous powder. Duplicate samples of ground feces from each individual animal were weighed out and extracted using organic solvent. […] Extraction conditions were not optimized for individual compounds, and thus may represent a minimal level of recovery.
(§3) The animals were kept in metabolic cages and feces were collected from the time of dosing until 48 hr after dosing. Upon collection, feces was dried by lyophilization and ground to a visually homogenous powder. Duplicate samples of ground feces from each individual animal were weighed out and extracted using organic solvent. […] Extraction conditions were not optimized for individual compounds, and thus may represent a minimal level of recovery.
as §3
The animals were kept in metabolic cages and feces were collected from the time of dosing until 48 hr after dosing. Upon collection, feces was dried by lyophilization and ground to a visually homogenous powder. Duplicate samples of ground feces from each individual animal were weighed out and extracted using organic solvent.

The target of data set [11] is T2, NaPi2b (Rattus norvegicus, UniProt Q9JJ09).
T2 construct: host or cells: HEK293
T2 sequence (Q9JJ09 1-695): T1 sequence (Q9JJ09 1-695)
Put plainly: Competition with phosphate: Pi transport assay repeated at 2.1 vs 0.1 mM phosphate. Conditions: potency at 2.1 vs 0.1 mM phosphate. It is filed as cell-based. The method, then:
as §1

[12] abbreviates: Structure (II) examples, Table 2.
[13] abbreviates: Structure (III) examples, Table 2.
Where [14] appears, read: Structure (IV) examples, Table 1.

As for `O=C(O)CNC(=O)CCSCc1cccc(C(=O)Nc2ccc(N3CCCCC3)cc2C(=O)N/N=C/c2ccc(Cl)c(C(F)(F)F)c2)c1` [Ex. 50, (E)-2-(3-(3-(2-(2-(4-chloro-3-(trifluoromethyl)benzylidene)hydrazinecarbonyl)-4-(piperidin-1-yl)phenylcarbamoyl)benzylthio)propanamido)acetic acid], the IC50 at rat NaP2b (SLC34A2) [1] (Structure (V) examples, Table 2, rat NaP2b, HEK293, read-out: pIC50 Range (converted)) is 0.1 to 0.794 µM. Further, the “% remaining, SGF” value in data set [2] (simulated gastric fluid) is recorded as 7%. Also, the “% remaining, SIF” value in data set [2] (simulated intestinal fluid) is reported as 90%.
As to `O=C(O)CCSCc1cccc(C(=O)Nc2ccc(N3CCCCC3)cc2-c2cc(C(=O)NCc3cc(C(F)(F)F)cc(C(F)(F)F)c3)ccn2)c1` [Example 1.32], the IC50 on rat NaP2b (SLC34A2) [3] is 1 to 7.94 µM. Moreover, in data set [4], the “% Inhibition of Serum P elevation” value is reported as 20-30%.
On the same counts, the results for `O=C(NCCN1CCOCC1)c1cccc(C(=O)Nc2ccc(N3CCCCC3)cc2-c2cc(C(=O)NCc3cccc(C(F)(F)F)c3)ccn2)c1` [Example 4.4, N1-(2-Morpholinoethyl)-N3-(4-(piperidin-1-yl)-2-(4-((3-(trifluoromethyl)benzyl)carbamoyl)pyridin-2-yl)phenyl)isophthalamide] are 10 to 31.6 µM and 40-50%.
Take `CN(CCN1CCOCC1)C(=O)c1cccc(C(=O)Nc2ccc(N3CCCCC3)cc2-c2cc(C(=O)N[C@H]3CCCc4ccccc43)ccn2)c1.Cl` [Example 37, (S)—N1-Methyl-N1-(2-morpholinoethyl)-N3-(4-(piperidin-1-yl)-2-(4-((1,2,3,4-tetrahydronaphthalen-1-yl)carbamoyl)pyridin-2-yl)phenyl)isophthalamide]: the “Competitive with respect to Pi?” value in the data set on NaPi2b [5] is “No”. Besides, the inhibition in vivo at 101 mg/kg/day in data set [6] was at most 10%. Besides, the “% remaining, SGF” value in data set [7] is recorded as over 80%. For the same compound, the “% remaining, SIF” value in data set [8] is on record as over 80%. Besides, in [9], the AUC – broadly, the area under the concentration-time curve, a measure of exposure – is under 30 ng·h/mL and the Cmax (as a rule, the maximum level reached in the sampled fluid or tissue) was under 10 ng/mL. For the same compound, the “% recovered in feces” value in data set [10] is reported as under 20%.
`O=C(O)P(=O)(O)O` [PFA]: the “pIC50 range for rat Nap2b” value on rat NaP2b (SLC34A2) [3], at rat NaP2b (SLC34A2) [1] (setting [12]), at rat NaP2b (SLC34A2) [1] (setting [13]) and at rat NaP2b (SLC34A2) [1] (setting [14]) was 2-3 throughout. Besides, the “Competitive with respect to Pi?” value in the data set with NaPi2b [5], at NaPi2b [11] (setting [12]), at NaPi2b [11] (setting [13]) and on NaPi2b [11] (setting [14]) was “Yes” throughout.
